Results published in paper PMC9822021, “Biological Activity of Amidino-Substituted Imidazo [4,5-b]pyridines” (Molecules, 2022).
≈ marks a conversion by molar mass, not a printed value.

Legend:
[1] = test system: Influenza H3N2 (A/HK/7/87); assay: Antiviral CPE reduction assay; format: cell-based; settings: Influenza A virus, MDCK cells
[2] = in vitro; settings: dog
[3] = test system: Influenza H1N1 (A/Ned/378/05); assay: Antiviral CPE reduction assay; format: cell-based; settings: Influenza A virus, MDCK cells
[4] = test system: Influenza B (B/Ned/537/05); assay: Antiviral CPE reduction assay; format: cell-based; settings: Influenza B virus, MDCK cells
[5] = test system: HL-60 acute myeloid leukemia cells; assay: In vitro antiproliferative activity, MTS proliferation assay; format: cell-based; settings: Homo sapiens, 72 h
Protocol: (§1) Culture media were purchased from Gibco Life Technologies, USA, and supplemented with 10% fetal bovine serum (HyClone, GE Healthcare Life Sciences, Chicago, IL, USA), except for the media for SW620, PC3 and HeLa cells, which were purchased from Sigma.
(§2) Cells were incubated for 72 h with compounds and were then analyzed using the CellTiter 96® AQueous One Solution Cell Proliferation Assay (MTS) reagent (Promega) according to the manufacturer’s instructions. […] Compounds were tested in two independent experiments. SW620, PC3 and HeLa cells were seeded in 96-well microtiter plates at 1 × 10^4 to 3 × 10^4 cells/mL, depending on the doubling times of the specific cell line. Test agents were then added in five 10-fold dilutions (10^−8 to 10^−4 M). Working dilutions were freshly prepared on the day of testing. After 72 h of incubation, the cell growth rate was evaluated using the MTT assay as described previously. […] Each test was performed in quadruplicate in at least two individual experiments.

[6] = test system: Capan-1 pancreatic adenocarcinoma cells; assay: as above; format: cell-based; settings: Homo sapiens, 72 h
Protocol: as §1, §2

[7] = test system: DND-41 acute lymphoblastic leukemia cells; assay: as above; format: cell-based; settings: Homo sapiens, DND41, 72 h
Protocol: as §1, §2

[8] = test system: E. coli ATCC 25922; assay: Antibacterial activity in vitro, broth microdilution; format: cell-based; settings: Escherichia coli, ATCC25922; broth microdilution (CLSI), 16–24 h at 37 °C
Protocol: (§3) Synthesized compounds were prepared as 10 mM DMSO solutions and tested in a final concentration range of 100–0.2 µM [34].
(§4) Broth microdilution testing was performed according to CLSI (Clinical Laboratory Standards Institute) guidelines. MIC (minimal inhibitory concentration) values were defined as the last tested concentration of the compound at which there was no visible growth of bacteria. Inoculums for each microorganism were prepared using the direct colony suspension method, where broth solutions that achieved turbidity equivalent to 0.5 McFarland standard were additionally diluted 100× with Ca-adjusted MH media (Becton Dickinson).

[9] = test system: S. Pneumoniae ATCC 49619; assay: as above; format: cell-based; settings: Streptococcus pneumoniae, ATCC49619; broth microdilution (CLSI), 16–24 h at 37 °C
Protocol: as §3, §4

[10] = test system: S. aureus ATCC 29213; assay: as above; format: cell-based; settings: Staphylococcus aureus, ATCC29213; broth microdilution (CLSI), 16–24 h at 37 °C
Protocol: as §3, §4

[11] = test system: NCI-H460 lung carcinoma cells; assay: In vitro antiproliferative activity, MTS proliferation assay; format: cell-based; settings: Homo sapiens, 72 h
From the text: (§5) Human cancer cell lines used in this manuscript, namely Capan-1, HCT-116, NCI-H460, LN-229, HL-60, K-562, Z-138, SW620, PC3 and HeLa, were acquired from the American Type Culture Collection (ATCC, Manassas, VA, USA), while the DND-41 cell line was purchased from the Deutsche Sammlung von Mikroorganismen und Zellkulturen (DSMZ Leibniz-Institut, Germany). Culture media were purchased from Gibco Life Technologies, USA, and supplemented with 10% fetal bovine serum (HyClone, GE Healthcare Life Sciences, Chicago, IL, USA), except for the media for SW620, PC3 and HeLa cells, which were purchased from Sigma.
(§6) Adherent cell lines LN-229, HCT-116, NCI-H460 and Capan-1 cells were seeded at a density between 500 and 1500 cells per well in 384-well tissue culture plates (Greiner). […]. Cells were incubated for 72 h with compounds and were then analyzed using the CellTiter 96® AQueous One Solution Cell Proliferation Assay (MTS) reagent (Promega) according to the manufacturer’s instructions. Absorbance of the samples was measured at 490 nm using a SpectraMax Plus 384 (Molecular Devices), and OD values were used to calculate the 50% inhibitory concentration (IC50). Compounds were tested in two independent experiments. SW620, PC3 and HeLa cells were seeded in 96-well microtiter plates at 1 × 10^4 to 3 × 10^4 cells/mL, depending on the doubling times of the specific cell line. Test agents were then added in five 10-fold dilutions (10^−8 to 10^−4 M). Working dilutions were freshly prepared on the day of testing. After 72 h of incubation, the cell growth rate was evaluated using the MTT assay as described previously. Absorbance of the samples was measured at 570 nm, and OD values were used to calculate the 50% inhibitory concentration (IC50). Each test was performed in quadruplicate in at least two individual experiments.

[12] = test system: K-562 chronic myeloid leukemia cells; assay: as above; format: cell-based; settings: Homo sapiens, K562, 72 h
From the text: as §5, §6

[13] = test system: HCT-116 colorectal carcinoma cells; assay: as above; format: cell-based; settings: Homo sapiens, 72 h
From the text: as §5, §6

[14] = test system: LN-229 glioblastoma cells; assay: as above; format: cell-based; settings: Homo sapiens, 72 h
From the text: as §5, §6

[15] = test system: E. coli Efflux Del; assay: microbe, parasite or virus in culture; format: cell-based; settings: Escherichia coli, read-out: MIC E. coli Efflux Del
Protocol: as §3, §4

[16] = test system: Z-138 non-Hodgkin lymphoma cells; assay: In vitro antiproliferative activity, MTS proliferation assay; format: cell-based, human; settings: Homo sapiens, Z-138, 72 h
From the text: as §5, §6

[17] = test system: HeLa cervical carcinoma cells; assay: In vitro antiproliferative activity, MTT assay; format: cell-based; settings: Homo sapiens, 72 h
From the text: as §5, §6

[18] = test system: SW620 colon carcinoma cells; assay: In vitro antiproliferative activity, MTT assay; format: cell-based; settings: Homo sapiens, SW-620, 72 h
From the text: as §5, §6

[19] = test system: PC3 prostate carcinoma cells; assay: In vitro antiproliferative activity, MTT assay; format: cell-based; settings: Homo sapiens, 72 h
From the text: as §5, §6

[20] = in vitro; settings: human
[21] = in vitro; settings: human; remark: listed apart in the source

Structure (SMILES) | CC50 [2] [µM] | IC50 [5] [µM] | IC50 [6] [µM] | IC50 [7] [µM] | MIC [8] [µM] | MIC [9] [µM] | MIC [10] [µM] | IC50 [11] [µM] | IC50 [12] [µM] | IC50 [13] [µM] | IC50 [14] [µM] | MIC [15] [µM] | melting point [°C] | IC50 [16] [µM] | IC50 [17] [µM] | IC50 [18] [µM] | IC50 [19] [µM] | CC50 [20] [µM] | CC50 [21] [µM] | also measured
CC(=O)N[C@H]1[C@H]([C@H](O)[C@H](O)CO)OC(C(=O)O)=C[C@@H]1N=C(N)N [Zanamivir, zanamivir, reference compound] | > 100 | – | – | – | – | – | – | – | – | – | – | – | – | – | – | – | – | – | – | EC50 [1]: 16.8 ± 6.8 µM; EC50 [3]: 130 ± 40 nM; EC50 [4]: 50 ± 30 nM
CC(C)NC(=N)c1ccc(-c2nc3ncc(Br)cc3[nH]2)cc1.Cl [Compound 16, 4-(6-Bromo-1H-imidazo[4,5-b]pyridin-2-yl)-N-isopropylbenzimidamide Hydrochloride] | 71.2 ± 40.8 | 91.4 ± 5.1 | 52.7 ± 2.9 | 11.9 ± 0.1 | > 64 | > 64 | > 64 | > 100 | 53.6 ± 2.8 | 77.2 ± 19.1 | 52.4 ± 8.1 | > 64 | > 300 | 12.1 ± 0.8 | 13.3 ± 4.3 | 7.4 ± 1.1 | 13.3 ± 2.6 | – | – | –
C[C@@H](O)[C@H]1C(=O)N2C(C(=O)O)=C(S[C@@H]3CN[C@H](C(=O)N(C)C)C3)[C@H](C)[C@H]12 [Meropenem, meropenem, reference compound] | – | – | – | – | < 0.125 | < 0.125 | < 0.125 | – | – | – | – | < 0.125 | – | – | – | – | – | – | – | –
CC1(C)S[C@@H]2[C@H](NC(=O)[C@H](N)c3ccccc3)C(=O)N2[C@H]1C(=O)O [Ampicillin, ampicillin, reference compound] | – | – | – | – | 1 (≈ 0.349 µg/mL) | < 0.125 | 1 (≈ 0.349 µg/mL) | – | – | – | – | – | – | – | – | – | – | – | – | –
Cl.N=C(N)c1ccc(-c2nc3ncccc3[nH]2)cc1 [Compound 9, 4-(1H-Imidazo[4,5-b]pyridin-2-yl)benzimidamide Hydrochloride] | > 100 | > 100 | > 100 | > 100 | > 64 | > 64 | > 64 | > 100 | > 100 | > 100 | > 100 | > 64 | > 300 | > 100 | > 100 | > 100 | > 100 | > 100 | > 100 | –
Cn1c(-c2ccccc2)nc2cc(Br)cnc21 [Compound 18, 6-Bromo-3-methyl-2-phenyl-3H-imidazo[4,5-b]pyridine] | > 100 | > 100 | > 100 | > 100 | > 64 | > 64 | > 64 | > 100 | > 100 | > 100 | > 100 | > 64 | 214 to 215 | > 100 | 48 ± 0.2 | > 100 | > 100 | > 100 | > 100 | –
Cn1c(-c2ccc(C#N)cc2)nc2cc(Br)cnc21 [Compound 19, 4-(6-Bromo-3-methyl-3H-imidazo[4,5-b]pyridin-2-yl)benzonitrile] | > 100 | > 100 | > 100 | > 100 | > 64 | > 64 | > 64 | > 100 | > 100 | > 100 | > 100 | > 64 | 234 to 235 | > 100 | 26.1 ± 0.01 | 63.8 ± 7.4 | 28.8 ± 15 | > 100 | > 100 | –
CN[C@@H]1C[C@H]2O[C@@](C)([C@@H]1OC)n1c3ccccc3c3c4c(c5c6ccccc6n2c5c31)C(=O)NC4 [STS, staurosporine, reference compound] | – | – | – | – | – | – | – | 0.0448 ± 0.004 | 0.0374 ± 0.006 | 0.0701 ± 0.006 | 0.0668 ± 0.016 | – | – | 0.0484 ± 0.007 | – | – | – | – | – | –
CC(=O)O[C@@]12CO[C@@H]1C[C@H](O)[C@@]1(C)C(=O)[C@H](O)C3=C(C)[C@@H](OC(=O)[C@H](O)[C@@H](NC(=O)OC(C)(C)C)c4ccccc4)C[C@@](O)([C@@H](OC(=O)c4ccccc4)[C@H]21)C3(C)C [DTX, docetaxel, reference compound] | – | 0.0022 | 0.0038 ± 0.003 | 0.0025 | – | – | – | 0.0034 | 0.0085 ± 0.001 | 0.0025 | 0.0041 ± 0.003 | – | – | 0.0023 | – | – | – | – | – | –
N#Cc1ccc(-c2nc3ncccc3[nH]2)cc1 [Compound 6, 4-(1H-Imidazo[4,5-b]pyridin-2-yl)benzonitrile] | > 100 | > 100 | > 100 | > 100 | > 64 | > 64 | > 64 | > 100 | > 100 | > 100 | > 100 | > 64 | – | > 100 | 28.9 ± 7.2 | > 100 | > 100 | > 100 | > 100 | –
COc1cccc2c1C(=O)c1c(O)c3c(c(O)c1C2=O)C[C@@](O)(C(=O)CO)C[C@@H]3O[C@H]1C[C@H](N)[C@H](O)[C@H](C)O1 [doxorubicine, reference compound] | – | – | – | – | – | – | – | – | – | – | – | – | – | – | 0.16 ± 0.05 | 0.02 | 0.13 ± 0.02 | – | – | –
CC(C)(O/N=C(\C(=O)N[C@@H]1C(=O)N2C(C(=O)[O-])=C(C[n+]3ccccc3)CS[C@H]12)c1csc(N)n1)C(=O)O [Ceftazidime, ceftazidime, reference compound] | – | – | – | – | 0.25 (≈ 0.137 µg/mL) | 0.25 (≈ 0.137 µg/mL) | 16 (≈ 8.75 µg/mL) | – | – | – | – | 0.25 (≈ 0.137 µg/mL) | – | – | – | – | – | – | – | –
COc1cc([C@@H]2c3cc4c(cc3[C@@H](O[C@@H]3O[C@@H]5CO[C@@H](C)O[C@H]5[C@H](O)[C@H]3O)[C@H]3COC(=O)[C@H]23)OCO4)cc(OC)c1O [etoposide, reference compound] | – | – | – | – | – | – | – | – | – | – | – | – | – | – | 0.004 ± 0.001 | 0.63 ± 0.1 | 11.6 ± 1.9 | – | – | –
Cl.c1cnc2nc(-c3ccc(C4=NCCCN4)cc3)[nH]c2c1 [Compound 12, 2-(4-(1H-Imidazo[4,5-b]pyridin-2-yl)phenyl)-3,4,5,6-tetrahydropyrimidin-1-ium Chloride] | > 100 | > 100 | > 100 | > 100 | > 64 | > 64 | > 64 | > 100 | > 100 | > 100 | > 100 | > 64 | > 300 | > 100 | > 100 | > 100 | > 100 | > 100 | > 100 | –
